Laboratory results taken from PubChem BioAssay (NCI).
Values joined by “and” are separate entries in the source; they are usually repeats but may differ in a detail not shown here. Identical values can stand only once.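 Cells were grown in 96-well plates and exposed to each compound for 48 hours at five concentrations; endpoints were interpolated linearly between bracketing concentrations, or set to the highest concentration if not reached. GI50 marks 50% less growth. Definition used: TGI = concentration required for complete inhibition of growth.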

Key:
Assay in all cases: NCI anticancer screen, dose series, 48 h
[1] = system: TK-10 renal
[2] = system: HCT-15 colon
[3] = system: COLO 205 colon
[4] = system: HOP-62 NSCLC
[5] = system: SK-MEL-2 melanoma
[6] = system: SN12C renal
[7] = system: OVCAR-5 ovarian
[8] = system: HL-60(TB) leukemia
[9] = system: MCF7 breast
[10] = system: HOP-92 NSCLC

SMILES	TGI [1]	TGI [2]	TGI [3]	TGI [4]	TGI [5]	TGI [6]	TGI [7]	TGI [8]	TGI [9]	TGI [10]	GI50 [1]	GI50 [2]	GI50 [3]	GI50 [4]	GI50 [5]	GI50 [6]	GI50 [7]	GI50 [8]	GI50 [9]	GI50 [10]
O=[N+]([O-])c1cc(C(F)(F)F)cc2n[se]nc12	8.47 µM	5.59 µM	4.21 µM	29.8 µM	22.7 µM	10.6 µM	26.4 µM	4.02 µM	4.07 µM	5.1 µM	–	–	–	–	–	–	–	–	–	–
CC1OC(OC2C(O)C(OCCc3ccc(O)c(O)c3)OC(CO)C2OC(=O)/C=C/c2ccc(O)c(O)c2)C(O)C(O)C1O (stereo not drawn)	> 100 µM	> 100 µM	> 100 µM	> 100 µM	> 100 µM	36.8 µM	39 µM	> 100 µM	> 100 µM	> 100 µM	> 100 µM	> 100 µM	> 100 µM	> 100 µM	> 100 µM	20.5 µM	19.6 µM	14.9 µM	32.9 µM	> 100 µM
O=C1NC(c2cccc3ccccc23)Nc2ccccc21 (stereo not drawn)	> 68 µM	2.28 µM and 2.17 µM	0.0954 µM	29.6 µM	7.5 µM and > 20.2 µM	> 100 µM	> 65.3 µM	0.0391 µM and 0.0342 µM	2.56 µM	–	0.0545 µM	–	0.027 µM	0.0317 µM	–	0.0198 µM	–	0.00675 µM	0.284 µM	–
O=C(Nc1cccc(-n2ccc3c(NC(=O)c4ccccc4)nccc32)c1)c1ccc(Cl)c(Cl)c1	2.28 µM	1.31 µM	0.517 µM	1.87 µM	2.79 µM	1.78 µM	1.71 µM	0.977 µM	1.43 µM	2.12 µM	0.865 µM	0.0879 µM	0.124 µM	0.24 µM	1.12 µM	0.38 µM	0.476 µM	0.188 µM	0.04 µM	0.13 µM
COc1ccc(Cl)cc1Nc1nc(C(F)(F)F)ccc1C(=O)N/N=C/c1ccccc1Cl	4.61 µM	> 63.8 µM	4.18 µM	> 29.2 µM	> 28.4 µM	> 100 µM	54 µM	> 19.7 µM	5.34 µM	12.6 µM	0.442 µM	0.754 µM	1.7 µM	7.7 µM	3.45 µM	2.56 µM	3.55 µM	2.74 µM	1.04 µM	2.34 µM
CC(C)c1ccc(C(O)(C(=O)O)c2ccc(C(C)C)cc2)cc1	> 100 µM	> 100 µM	> 100 µM	> 100 µM	–	> 100 µM	> 100 µM	99.4 µM	> 100 µM	> 100 µM	–	–	–	–	–	–	–	–	–	–
CCc1nc(N)nc(N)c1-c1ccc(N(C)Cc2ccccc2)c([N+](=O)[O-])c1	34.2 µM	9.86 µM	8.4 µM	14.3 µM	20 µM	41.7 µM	32.9 µM	5.88 µM	15.9 µM	18.7 µM	–	–	–	–	–	–	–	–	–	–
Cc1nccc2c3ccc(OCc4cn(-c5ccc(Br)cc5)nn4)cc3n(CCCc3ccccc3)c12	3.29 µM	–	–	29.6 µM	> 100 µM	–	6.72 µM	> 100 µM	> 100 µM	> 100 µM	1.62 µM	–	–	3.16 µM	> 100 µM	–	2.15 µM	6.53 µM	3.09 µM	47.4 µM
CN(C)C[C@@H]1CCn2cc(c3ccccc32)C2=C(C(=O)NC2=O)c2cn(c3ccccc23)CCO1	> 10 µM	> 10 µM	> 10 µM	> 10 µM	> 10 µM	5.85 µM	> 10 µM	3.75 µM	> 10 µM	6.31 µM	2.22 µM	1.61 µM	1.03 µM	2.54 µM	2 µM	0.679 µM	1.34 µM	1.6 µM	1.74 µM	0.446 µM
COC1/C=C/OC2(C)Oc3c(C)c(O)c4c(O)c(c(/C=N/N(c5ccccc5)c5ccccc5)c(O)c4c3C2=O)NC(=O)C(C)=C/C=C/C(C)C(O)C(C)C(O)C(C)C(OC(C)=O)C1C (stereo not drawn)	7.55 µM	5.45 µM	6.23 µM	10.3 µM	7.14 µM	7.46 µM	10.9 µM	3.58 µM	6.58 µM	2.86 µM	1.8 µM	1.48 µM	1.73 µM	3.41 µM	1.84 µM	1.81 µM	2.07 µM	1.6 µM	1.62 µM	0.867 µM
